According to patent US20250136596A1, “MEMBRANE-ASSOCIATED TYROSINE- AND THREONINE-SPECIFIC CDC2-INHIBITORY KINASE (PKMYT1) INHIBITORS AND USES THEREOF” (Insilico Medicine IP Limited, priority 2022, published 2025):

Biological target: PKMYT1 (Homo sapiens (Human), UniProt Q99640)
Experiment: PKMYT1 HTRF Assay
Assay type: binding
Conditions: Tracer 178, GST-Tb; compound 10 μM to 0.5 nM; read-out: MYT1 HTRF IC50
Experimental: Example A: PKMYT1 HTRF Assay
Compound serial dilution is performed by Echo, and the final concentrations vary from 10 μM to 0.5 nM. This was filled by the addition of 5 μL/well of Enzyme solution to the assay plate containing the compound. The plate was centrifuged at 1000 rpm for 1 minute, and incubate 15 minutes at 25 ? . Then 5 μL/well of tracer solution (Tracer 178) was added to initiate the reaction, and incubate for 60 minutes at 25° C. Next 5 μL GST-Tb was added into the assay plate, the plate was centrifuged at 1000 rpm for 1 minute, and incubate for 15 minutes at 25 ? . The assay plate was read on Envision.

Chain of PKMYT1 (Q99640 whole entry): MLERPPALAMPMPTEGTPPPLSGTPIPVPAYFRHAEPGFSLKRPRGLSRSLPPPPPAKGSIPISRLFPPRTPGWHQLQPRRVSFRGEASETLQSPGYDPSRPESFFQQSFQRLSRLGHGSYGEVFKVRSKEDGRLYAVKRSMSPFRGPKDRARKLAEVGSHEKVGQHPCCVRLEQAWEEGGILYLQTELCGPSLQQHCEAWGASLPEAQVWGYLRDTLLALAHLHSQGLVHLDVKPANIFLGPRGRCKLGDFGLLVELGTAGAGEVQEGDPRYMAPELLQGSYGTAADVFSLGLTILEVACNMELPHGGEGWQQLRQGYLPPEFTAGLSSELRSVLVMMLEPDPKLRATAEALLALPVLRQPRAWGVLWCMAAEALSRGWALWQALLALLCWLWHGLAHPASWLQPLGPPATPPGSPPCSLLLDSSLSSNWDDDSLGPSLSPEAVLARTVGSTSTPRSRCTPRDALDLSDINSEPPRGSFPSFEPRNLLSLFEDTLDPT

Q: Which IC50 does the source give for `Cc1ncc(-c2cc3c(C#N)c(-c4c(C)ccc(O)c4C)cnc3[nH]2)cn1` (atropisomer, axis not shown) [Example 32, (S)-5-(3-hydroxy-2,6-dimethylphenyl)-2-(2-methylpyrimidin-5-yl)-1H-pyrrolo[2,3-b]pyridine-4-carbonitrile] here?
A: Its IC50 is < 10 nM.

Q: How did the IC50 turn out when `Cc1ncc(-c2[nH]c3ncc(-c4c(C)ccc(O)c4C)c(C#N)c3c2Cl)cn1` (atropisomer, axis not shown) [Example 33, (S)-3-chloro-5-(3-hydroxy-2,6-dimethylphenyl)-2-(2-methylpyrimidin-5-yl)-1H-pyrrolo[2,3-b]pyridine-4-carbonitrile] was run?
A: The IC50 was < 10 nM.

Q: For `Cc1ncc(-c2cc3c(C#N)c(-c4c(C)ccc(O)c4C)cnc3[nH]2)c(C)n1` (atropisomer, axis not shown) [Example 77, (R)-2-(2,4-dimethylpyrimidin-5-yl)-5-(3-hydroxy-2,6-dimethylphenyl)-1H-pyrrolo[2,3-b]pyridine-4-carbonitrile], which IC50 is on record?
A: The IC50 was 10 to 50 nM.

Q: For `Cc1ccc(O)c(C)c1-c1cnc2[nH]c(-c3ccc(N4CCN(C)CC4)nc3C)nc2c1` [Example 1, 2,4-dimethyl-3-(2-(2-methyl-6-(4-methylpiperazin-1-yl)pyridin-3-yl)-3H-imidazo[4,5-b]pyridin-6-yl)phenol], which IC50 is on record?
A: The IC50 was 50 to 500 nM.

Q: Which IC50 does the source give for `Cc1ccc(O)c(C)c1-c1cnc2[nH]c(-c3ccc(N4CCN(C)CC4)nc3C)nc2c1C` [Example 2, 2,4-dimethyl-3-(7-methyl-2-(2-methyl-6-(4-methylpiperazin-1-yl)pyridin-3-yl)-3H-imidazo[4,5-b]pyridin-6-yl)phenol] here?
A: The IC50 was 500 to 5000 nM.

Q: Which IC50 does the source give for `Cc1ccc(O)c(C)c1-c1cnc2[nH]c(-c3ccc(N4CCN(C)CC4)nc3)c(C)c2c1` [Example 3, 2,4-dimethyl-3-(3-methyl-2-(6-(4-methylpiperazin-1-yl)pyridin-3-yl)-1H-pyrrolo[2,3-b]pyridin-5-yl)phenol] here?
A: The IC50 was 50 to 500 nM.

Q: With `Cc1ccc(O)c(C)c1-c1cnc2[nH]c(-c3ccc(N4CCN(C)CC4)nc3)cc2c1` [Example 4, 2,4-dimethyl-3-(2-(6-(4-methylpiperazin-1-yl)pyridin-3-yl)-1H-pyrrolo[2,3-b]pyridin-5-yl)phenol] as the compound, how does the IC50 read?
A: Its IC50 is 50 to 500 nM.

Q: `Cc1ccc(-c2cc3cc(-c4c(C)ccc(O)c4C)cnc3[nH]2)cn1` [Example 5, 2,4-dimethyl-3-(2-(6-methylpyridin-3-yl)-1H-pyrrolo[2,3-b]pyridin-5-yl)phenol] was tested. Which IC50 did it give?
A: Its IC50 is 10 to 50 nM.

Q: For `CC(=O)N1CC=C(c2cc3cc(-c4c(C)ccc(O)c4C)cnc3[nH]2)CC1` [Example 6, 1-(4-(5-(3-hydroxy-2,6-dimethylphenyl)-1H-pyrrolo[2,3-b]pyridin-2-yl)-3,6-dihydropyridin-1 (2H)-yl)ethan-1-one], which IC50 is on record?
A: The IC50 was 50 to 500 nM.

Q: How did the IC50 turn out when `Cc1ncc(-c2cc3cc(-c4c(C)ccc(O)c4C)cnc3[nH]2)cn1` [Example 7, 2,4-dimethyl-3-(2-(2-methylpyrimidin-5-yl)-1H-pyrrolo[2,3-b]pyridin-5-yl)phenol] was run?
A: The IC50 was 10 to 50 nM.

Q: `COc1cncc(-c2cc3cc(-c4c(C)ccc(O)c4C)cnc3[nH]2)c1` [Example 8, 3-(2-(5-methoxypyridin-3-yl)-1H-pyrrolo[2,3-b]pyridin-5-yl)-2,4-dimethylphenol] was tested. Which IC50 did it give?
A: Its IC50 is 10 to 50 nM.

Q: How did the IC50 turn out when `Cc1ccc(O)c(C)c1-c1cnc2[nH]c(-c3ccn(C)c(=O)c3)cc2c1` [Example 9, 4-(5-(3-hydroxy-2,6-dimethylphenyl)-1H-pyrrolo[2,3-b]pyridin-2-yl)-1-methylpyridin-2 (1H)-one] was run?
A: Its IC50 is 10 to 50 nM.

Q: For `Cc1ccc(-c2cc3c(Cl)c(-c4c(C)ccc(O)c4C)cnc3[nH]2)cn1` [Example 10, 3-(4-chloro-2-(6-methylpyridin-3-yl)-1H-pyrrolo[2,3-b]pyridin-5-yl)-2,4-dimethylphenol], which IC50 is on record?
A: The IC50 was < 10 nM.

Q: With `Cc1ccc(-c2cc3nc(-c4c(C)ccc(O)c4C)cnc3[nH]2)cn1` [Example 11, 2,4-dimethyl-3-(6-(6-methylpyridin-3-yl)-5H-pyrrolo[2,3-b]pyrazin-2-yl)phenol] as the compound, how does the IC50 read?
A: Its IC50 is < 10 nM.

Q: How did the IC50 turn out when `Cc1ncc(-c2[nH]c3ncc(-c4c(C)ccc(O)c4C)nc3c2F)cn1` [Example 12, 3-(7-fluoro-6-(2-methylpyrimidin-5-yl)-5H-pyrrolo[2,3-b]pyrazin-2-yl)-2,4-dimethylphenol] was run?
A: Its IC50 is 10 to 50 nM.

Q: How did the IC50 turn out when `Cc1ncc(-c2[nH]c3ncc(-c4c(C)ccc(O)c4C)nc3c2C)cn1` [Example 13, 2,4-dimethyl-3-(7-methyl-6-(2-methylpyrimidin-5-yl)-5H-pyrrolo[2,3-b]pyrazin-2-yl)phenol] was run?
A: The IC50 was 10 to 50 nM.

Q: For `Cc1ccc(O)c(C)c1-c1cnc2[nH]c(-c3cnc(N)nc3)c(C#CC(C)(C)O)c2n1` [Example 14, 3-(6-(2-aminopyrimidin-5-yl)-7-(3-hydroxy-3-methylbut-1-yn-1-yl)-5H-pyrrolo[2,3-b]pyrazin-2-yl)-2,4-dimethylphenol], which IC50 is on record?
A: The IC50 was < 10 nM.

Q: With `Cc1ncc(-c2cc3nc(-c4c(C)ccc(O)c4C)cnc3[nH]2)cn1` [Example 15, 2,4-dimethyl-3-(6-(2-methylpyrimidin-5-yl)-5H-pyrrolo[2,3-b]pyrazin-2-yl)phenol] as the compound, how does the IC50 read?
A: The IC50 was 10 to 50 nM.

Q: Which IC50 does the source give for `Cc1ncc(-c2[nH]c3ncc(-c4c(C)ccc(O)c4C)nc3c2Cl)cn1` [Example 16, 3-(7-chloro-6-(2-methylpyrimidin-5-y1)-5H-pyrrolo[2,3-b]pyrazin-2-yl)-2,4-dimethylphenol] here?
A: The IC50 was < 10 nM.

Q: For `Cc1ccc(O)c(C)c1-c1cnc2[nH]c(-c3cnc(N4CC(C)(O)C4)nc3)c(Cl)c2n1` [Example 17, 1-(5-(7-chloro-2-(3-hydroxy-2,6-dimethylphenyl)-5H-pyrrolo[2,3-b]pyrazin-6-yl)pyrimidin-2-yl)-3-methylazetidin-3-ol], which IC50 is on record?
A: The IC50 was < 10 nM.

Q: For `Cc1ccc(O)c(C)c1-c1cnc2[nH]c(-c3cnc(N4CC(O)C4)nc3)cc2n1` [Example 18, 1-(5-(2-(3-hydroxy-2,6-dimethylphenyl)-5H-pyrrolo[2,3-b]pyrazin-6-yl)pyrimidin-2-yl)azetidin-3-ol], which IC50 is on record?
A: Its IC50 is < 10 nM.

Q: For `Cc1ncc(-c2cc3nc(-c4c(C)ccc(O)c4C)cnc3[nH]2)s1` [Example 19, 2,4-dimethyl-3-(6-(2-methylthiazol-5-y1)-5H-pyrrolo[2,3-b]pyrazin-2-yl)phenol], which IC50 is on record?
A: The IC50 was 10 to 50 nM.

Q: With `Cc1ncc(-c2[nH]c3ncc(-c4c(C)ccc(O)c4C)nc3c2C#CC(C)(C)O)cn1` [Example 20, 3-(7-(3-hydroxy-3-methylbut-1-yn-1-yl)-6-(2-methylpyrimidin-5-yl)-5H-pyrrolo[2,3-b]pyrazin-2-yl)-2,4-dimethylphenol] as the compound, how does the IC50 read?
A: The IC50 was < 10 nM.

Q: How did the IC50 turn out when `Cc1ccc(O)c(C)c1-c1cnc2[nH]c(-c3cnc(N4C[C@@H]5C[C@H]4CO5)nc3)c(C#CC(C)(C)O)c2n1` [Example 21, 3-(6-(2-((1S,4S)-2-oxa-5-azabicyclo[2.2.1]heptan-5-yl)pyrimidin-5-yl)-7-(3-hydroxy-3-methylbut-1-yn-1-yl)-5H-pyrrolo[2,3-b]pyrazin-2-yl)-2,4-dimethylphenol] was run?
A: The IC50 was < 10 nM.

Q: With `Cc1ccc(O)c(C)c1-c1cnc2[nH]c(-c3ccc4scnc4c3)cc2c1` [Example 22, 3-(2-(benzo[d]thiazol-5-yl)-1H-pyrrolo[2,3-b]pyridin-5-yl)-2,4-dimethylphenol] as the compound, how does the IC50 read?
A: The IC50 was 50 to 500 nM.

Q: For `Cc1ncc(-c2[nH]c3ncc(-c4c(C)ccc(O)c4C)c(Cl)c3c2F)cn1` [Example 24, (S)-3-(4-chloro-3-fluoro-2-(2-methylpyrimidin-5-yl)-1H-pyrrolo[2,3-b]pyridin-5-yl)-2,4-dimethylphenol], which IC50 is on record?
A: The IC50 was < 10 nM.
